Measured values from patent US8906904B2, “Alkoxy pyrazoles as soluble guanylate cyclase activators” (Boehringer Ingelheim International GmbH, priority 2012, dated 2014).
≈ marks a conversion by molar mass, not a printed value.

What was measured:
[1] = human liver microsome (HLM) metabolic stability assay; type: in vitro ADME; conditions: human liver microsomes; % hepatic blood flow calculated from t1/2
Experimental: The 5 time point, high-throughput human liver microsome (HLM) metabolic stability assay is designed to determine in vitro compound metabolism. Compounds are incubated with HLMs at a concentration of 1 uM, at 37° C., for a total of 60 min. The percent of compound remaining at 5, 15, 30, and 60 min is used to calculate the t½ (min), CLint (mL/min/kg), CLh (mL/min/kg), and % Qh. The assay is based on a 96-well format and can accommodate up to 92 compounds per plate (n=1).
Using the 96-well multi-channel head, the Biomek FX, equipped with a Peltier heating block/shaker, is programmed to accomplish the following steps: • 1. Pipette 175 uL of 1.15 mg/mL microsomes into each of the 96 conical inserts (Analytical Sales and Products, catalog number 96PL05) that fit into the plate of the Peltier heating block/shaker (the incubation plate) • 2. Add 5 uL of compounds from the assay plate to the microsomes and shake the mixture at 600 rpm at 42.1° C. for 10 min (a setting of 42.1° C. on the Peltier is required for the samples to incubate at 37° C.) • 3. After 10 min, prompt the user to add the NADPH plate to the deck and add 20 uL from the NADPH plate to the incubation plate to start the reaction • 4. Add 215 uL of 100%, cold acetonitrile containing an internal standard(s) to a 0 minute, 5 minute, 15 minute, 30 minute, and 60 minute “quench” plate • 5. At 0 min, 5 min, 15 min, 30 min, and 60 min into the incubation, aspirate 12 uL from the incubation mixture and add it to the quench solution to stop the reaction • 6. Add 185 uL HPLC grade water to each well of the 0, 5, 15, 30 and 60 minute quench plates to dilute compounds to the appropriate concentration for the mass spectrometer
After all time points are collected, the quench plates are sealed with 96-well pierceable plate mats or heat sealing foil and centrifuged at 3000 rpm for 15 min to pellet the microsomes.
The plates are analyzed using LC/MS/MS with electron spray ionization (ESI) and the previously determined MRM transitions. The LC method includes the following parameters:
Using an Excel template in Activitybase, the peak areas corresponding to 5, 15, 30 and 60 min are compared to the peak area at 0 min to calculate the percent of remaining compound using the following equation: Percent compound remaining=(AUC at Time t min/AUC at Time 0 min)×100 where t=0, 5, 15, 30 or 60 min.
Time (min) is plotted against the natural logarithm (Ln) of the percent compound remaining to determine the slope. The slope is used to calculate t½ (min) using the equation, t½=0.693/slope.
Preferred compounds have % Qh values of less than 24.

[2] = Assessment of solubility (McIlvaine buffers, 24 h shake, UPLC-UV); type: physicochemical; conditions: kinetic from dmso stock
Experimental: Solubility is measured by the following method.
100 uL, 10 mM DMSO stock solution of each compound is prepared in a 96 well plate format. The experiment is done in single determination at 3 pH values (2.2, 4.5 and 6.8). For each pH and one reference, 40 uL of each compound is needed.
McIlvaine pH 2.2: To 2.076 g citric acid monohydrate and 0.043 g Na2HPO4×2H2O add 100 ml deionized water
McIlvaine pH 4.5: To 1.166 g citric acid monohydrate and 1.585 g Na2HPO4×2H2O add 100 ml deionized water
McIlvaine pH 6.8: To 0.476 g citric acid monohydrate and 2.753 g Na2HPO4×2H2O add 100 ml deionized water
With a suitable liquid handling device (Multipette® or a liquid handler) 390 uL of each buffer solution and 10 uL of compound is added to each well of a 96 deep well plate. The plates are covered firmly and shaken for 24 h on an over head shaker (at 54 RPM) at room temperature. The DMSO content in the final buffer is 2.5% v/v.
After 24 h the plates are centrifuged to remove droplets on the lid before opening (for ˜5 min at 2500 RPM).
The filtration is done under vacuum with Millipore 96 well filter plate. Filtrate is collected in a deep well plate and transferred to a suitable plate for UPLC analysis.
The reference plate is prepared by adding 10 uL of compound to 390 uL of 50:50 acetonitrile/water in a 96 deep well plate and transferred to a suitable plate for UPLC analysis. Wells are checked visually for precipitation, any presence noted under comments in reported results.
The samples are measured with UPLC-UV using the chromatographic method described below.
Waters Empower®2 software is used for generating Sample Sets (according to the plate layout), Sample Set Methods and Instrument Methods.
One Sample Set comprises the methods for three 96 well plates (one reference plate and two sample plates, and includes one Sample Set Method and one Instrument Method).
3. Data Processing and Analysis
The UV chromatograms collected at 254 nm are integrated and processed.
It is assumed that the compound is completely dissolved in the reference solution (50:50 acetonitrile/water)

| SMILES | HLM (% Qh) [1] | solubility at 24 h ([2]; pH 2.2, aqueous buffer) | solubility at 24 h ([2]; pH 4.5, aqueous buffer) | solubility at 24 h ([2]; pH 6.8, aqueous buffer) |
| --- | --- | --- | --- | --- |
| COc1c(C(=O)O)cnn1-c1cccc(-c2cccc(Cl)c2OCc2ccc3c(c2)CCN(C2COC2)C3)n1 [Compound 7] | <24 % Qh | 110 µg/mL (≈ 201 µM) | 77 µg/mL (≈ 141 µM) | 91 µg/mL (≈ 166 µM) |
| COc1c(C(=O)O)cnn1-c1cccc(-c2cccc(C)c2OCc2ccc3c(c2)CCN(C2COC2)C3)n1 [Compound 8] | <24 % Qh | 110 µg/mL (≈ 209 µM) | 82 µg/mL (≈ 156 µM) | 98 µg/mL (≈ 186 µM) |
| COc1c(C(=O)O)cnn1-c1cccc(-c2cccc(C(F)(F)F)c2OCc2ccc3c(c2)CCN(C2COC2)C3)n1 [Compound 9] | <24 % Qh | 94 µg/mL (≈ 162 µM) | 70 µg/mL (≈ 121 µM) | 82 µg/mL (≈ 141 µM) |
| COc1c(C(=O)O)cnn1-c1cccc(-c2cccc(C)c2OCc2ccc3c(c2)C(C)(C)CN(C2COC2)C3)n1 [Compound 10] | 30 % Qh | 94 µg/mL (≈ 169 µM) | 50 µg/mL (≈ 90.1 µM) | 73 µg/mL (≈ 132 µM) |
| COc1c(C(=O)O)cnn1-c1cccc(-c2cccc(C)c2OCc2ccc3c(c2)CCN(CC(F)(F)F)C3)n1 [Compound 11, 5-methoxy-1-(6-{3-methyl-2-[2-(2,2,2-trifluoro-ethyl)-1,2,3,4-tetrahydro-isoquinolin-6-ylmethoxy]-phenyl}-pyridin-2-yl)-1H-pyrazole-4-carboxylic acid] | 47 % Qh | 23 µg/mL (≈ 41.6 µM) | < 0.1 µg/mL | 80 µg/mL (≈ 145 µM) |
| COc1c(C(=O)O)cnn1-c1cccc(-c2cccc(C)c2OCc2ccc3c(c2)CCN(CC2(C)COC2)C3)n1 [Compound 12] | <24 % Qh | 110 µg/mL (≈ 198 µM) | 90 µg/mL (≈ 162 µM) | 92 µg/mL (≈ 166 µM) |
| COc1c(C(=O)O)cnn1-c1cccc(-c2cccc(C)c2OCc2ccc3c(c2)CCN(C(C)C)C3)n1 [Compound 13] | <24 % Qh | 100 µg/mL (≈ 195 µM) | 84 µg/mL (≈ 164 µM) | 87 µg/mL (≈ 170 µM) |
| COc1c(C(=O)O)cnn1-c1cccc(-c2cccc(C)c2OCc2ccc3c(c2)CCN(CC(C)(C)C)C3)n1 [Compound 14] | 31 % Qh | 110 µg/mL (≈ 203 µM) | 82 µg/mL (≈ 152 µM) | 76 µg/mL (≈ 141 µM) |
| CCOc1c(C(=O)O)cnn1-c1cccc(-c2cccc(C)c2OCc2ccc3c(c2)CCN(CC2CC(=O)N(C)C2)C3)n1 (stereo not drawn) [Compound 97, 5-ethoxy-1-(6-{3-methyl-2-[2-(1-methyl-5-oxo-pyrrolidin-3-ylmethyl)-1,2,3,4-tetrahydro-isoquinolin-6-ylmethoxy]-phenyl}-pyridin-2-yl)-1H-pyrazole-4-carboxylic acid] | <24 % Qh | 91 µg/mL (≈ 153 µM) | 72 µg/mL (≈ 121 µM) | 77 µg/mL (≈ 129 µM) |
| COc1c(C(=O)O)cnn1-c1cccc(-c2ccc(C)cc2OCc2ccc3c(c2)CCN(C2CCOCC2)C3)n1 [Compound 98] | 31 % Qh | 150 µg/mL (≈ 270 µM) | 110 µg/mL (≈ 198 µM) | 99 µg/mL (≈ 178 µM) |
| COc1c(C(=O)O)cnn1-c1cccc(-c2ccc(C)cc2OCc2ccc3c(c2C)CCN(C2CCOCC2)C3)n1 [Compound 99] | <24 % Qh | 150 µg/mL (≈ 264 µM) | 120 µg/mL (≈ 211 µM) | 110 µg/mL (≈ 193 µM) |
| COc1c(C(=O)O)cnn1-c1cccc(-c2cccc(C)c2OCc2ccc3c(c2)CCCN(C2CCOCC2)C3)n1 [Compound 100] | 31 % Qh | 110 µg/mL (≈ 193 µM) | 88 µg/mL (≈ 155 µM) | 97 µg/mL (≈ 171 µM) |
| CCOc1c(C(=O)O)cnn1-c1cccc(-c2cccc(C)c2OCc2ccc3c(c2)CCN(CC2CCCO2)C3)n1 (stereo not drawn) [Compound 101, 5-ethoxy-1-(6-{3-methyl-2-[2-(tetrahydro-furan-2-ylmethyl)-1,2,3,4-tetrahydro-isoquinolin-6-ylmethoxy]-phenyl}-pyridin-2-yl)-1H-pyrazole-4-carboxylic acid] | <24 % Qh | 90 µg/mL (≈ 158 µM) | 73 µg/mL (≈ 128 µM) | 74 µg/mL (≈ 130 µM) |
| COc1c(C(=O)O)cnn1-c1cccc(-c2cccc(C)c2OCc2ccc3c(c2)CCN([C@H]2CC[C@]4(CCCO4)CC2)C3)n1 [Compound 102] | <24 % Qh | 99 µg/mL (≈ 163 µM) | 81 µg/mL (≈ 133 µM) | 82 µg/mL (≈ 135 µM) |
| COc1c(C(=O)O)cnn1-c1cccc(-c2cccc(C)c2OCc2ccc3c(c2)CCN([C@H]2CC[C@@]4(CCCO4)CC2)C3)n1 [Compound 103] | 25 % Qh | 96 µg/mL (≈ 158 µM) | 78 µg/mL (≈ 128 µM) | 81 µg/mL (≈ 133 µM) |
| Cc1cccc(-c2cccc(-n3ncc(C(=O)O)c3OC(C)C)n2)c1OCc1ccc2c(c1C)CCN(C1CCOCC1)C2 [Compound 104] | 26 % Qh | 110 µg/mL (≈ 184 µM) | 93 µg/mL (≈ 156 µM) | 97 µg/mL (≈ 163 µM) |
| COc1c(C(=O)O)cnn1-c1cccc(-c2cccc(C)c2OCc2ccc3c(c2C)CCN([C@H]2CCOC2)C3)n1 [Compound 105] | <24 % Qh | 93 µg/mL (≈ 168 µM) | 72 µg/mL (≈ 130 µM) | 75 µg/mL (≈ 135 µM) |
| COc1c(C(=O)O)cnn1-c1cccc(-c2cccc(C)c2OCc2ccc3c(c2C)CCN([C@@H]2CCOC2)C3)n1 [Compound 106] | <24 % Qh | 88 µg/mL (≈ 159 µM) | 69 µg/mL (≈ 124 µM) | 73 µg/mL (≈ 132 µM) |
| CCOc1c(C(=O)O)cnn1-c1cccc(-c2cccc(C)c2OCc2ccc3c(c2)CCN([C@H]2CCOC2)C3)n1 [Compound 110] | <24 % Qh | 130 µg/mL (≈ 234 µM) | 96 µg/mL (≈ 173 µM) | 120 µg/mL (≈ 216 µM) |
| Cc1cccc(-c2cccc(-n3ncc(C(=O)O)c3OC(C)C)n2)c1OCc1ccc2c(c1)CCN([C@H]1CCOC1)C2 [Compound 111] | <24 % Qh | 87 µg/mL (≈ 153 µM) | 69 µg/mL (≈ 121 µM) | 75 µg/mL (≈ 132 µM) |
| CCOc1c(C(=O)O)cnn1-c1cccc(-c2cccc(C)c2OCc2ccc3c(c2)CCN([C@@H]2CCOC2)C3)n1 [Compound 112] | <24 % Qh | 110 µg/mL (≈ 198 µM) | 78 µg/mL (≈ 141 µM) | 94 µg/mL (≈ 169 µM) |
| Cc1cccc(-c2cccc(-n3ncc(C(=O)O)c3OC(C)C)n2)c1OCc1ccc2c(c1)CCN([C@@H]1CCCOC1)C2 [Compound 113] | <24 % Qh | 94 µg/mL (≈ 161 µM) | 80 µg/mL (≈ 137 µM) | 84 µg/mL (≈ 144 µM) |
| CCOc1c(C(=O)O)cnn1-c1cccc(-c2cccc(C)c2OCc2ccc3c(c2C)CCN(C2CCOCC2)C3)n1 [Compound 114] | <24 % Qh | 120 µg/mL (≈ 206 µM) | 99 µg/mL (≈ 170 µM) | 100 µg/mL (≈ 172 µM) |
| Cc1cccc(-c2cccc(-n3ncc(C(=O)O)c3OC(C)C)n2)c1OCc1ccc2c(c1)CCN([C@H]1CCCOC1)C2 [Compound 115] | 25 % Qh | 89 µg/mL (≈ 153 µM) | 71 µg/mL (≈ 122 µM) | 43 µg/mL (≈ 73.8 µM) |
